Data on 30 compounds can be found in publication PMC10779255, “Novel Hydroxamic Acids Containing Aryl-Substituted 1,2,4- or 1,3,4-Oxadiazole Backbones and an Investigation of Their Antibiotic Potentiation Activity” (International Journal of Molecular Sciences, 2023).

Data set [1] in a line: Cytotoxicity assay (Alamar Blue). Format: cell-based. As to conditions: human, HEK293 cells, 72 h exposure, mean ± SD, at least 3 independent experiments. The protocol: The HEK293 cell line was obtained from the ECACC (European Collection of Authenticated Cell Cultures, cat. 85120602, Salisbury, UK). The cells were grown in monolayer culture in Dulbecco’s Modified Eagle Medium (DMEM) (PanEco, Moscow, Russia) supplemented with 2 mM of L-glutamine, 1% penicillin/streptomycin (Capricorn Scientific, Ebsdorfergrund, Germany), and 10% heat-inactivated fetal bovine serum (HyClone, Cytiva, Pasching, Austria) in a humidified atmosphere of 5% CO2 and at 37 °C (Binder, Tuttlingen, Germany). For analysis, the HEK293 cells were seeded into a 96-well plate (Corning Incorporated, Corning, NY, USA) in 100 μL of complete culture medium at a final concentration of 1 × 10^4 cells/well and cultured for 24 h for proper attachment. Subsequently, the medium was removed, and cells were exposed to the test inhibitor with different concentrations for 72 h in 100 μL of fresh complete culture medium. The sensitivity of the cells to test inhibitor molecules was detected using the vital dye Alamar Blue (Invitrogen, Carlsbad, CA, USA). The Alamar Blue assay was performed according to the procedure described by O’Brien et al.. After incubation with test inhibitor molecules, 10 μL of Alamar Blue reagent was added to each well, cell culture plates were returned to a humidified incubator, and the fluorescence was read after 3 h. The plates were exposed to an excitation wavelength of 545 nm, and the emission at 600 nm was measured with the CLARIOstar Plus (BMG Labtech, Ortenberg, Germany, Software Version 5.70 R2). To determine corresponding 50% cellular cytotoxicity (CC50) values, a four-parameter sigmoidal fit curve model (GraphPad Prism 8 software) was used to measure the data.
A general note: Alamar Blue is a resazurin reagent that responds to reducing activity.

Another data set deals with E. coli MG1655. Nature of the data set: Growth curves of E. coli MG1655 with antibiotics, with or without LpxC inhibitors (antibiotic potentiation). As to Activity: key: active (1); inactive (0). Format: cell-based, Escherichia coli. Conditions: for Activity: combined action together with the antibiotic, marking used for QSAR; for potentiation of kanamycin (sensitivity of cells): kanamycin 0.62 μM; for potentiation of kanamycin (sensitivity of cells) / potentiation of rifampicin (sensitivity of cells): inhibitor 50 or 100 µM; for potentiation of kanamycin (sensitivity of cells) / potentiating activity with nalidixic acid (growth inhibition) / potentiation of rifampicin (sensitivity of cells): OD600 growth curves; for potentiating activity with nalidixic acid (growth inhibition): nalidixic acid 17.22 μM, inhibitor 50–100 µM; for potentiation of rifampicin (sensitivity of cells): rifampicin 6.08 μM. Here is the method:
(§1) Escherichia coli strain MG1655 and Pseudomonas aeruginosa strain ATCC 27853 were obtained from the American Type Culture Collection (ATCC; Rockville, MD, USA). Subculturing and inoculum preparation were prepared according to the Clinical and Laboratory Standards Institute (CLSI) recommended method, M7-A9 [42], using MHA and MHB.
Growth curves were obtained with a Bioscreen C automated growth analysis system. Cultures of E. coli MG1655 were grown overnight at 37 °C, diluted 1:100 in fresh medium, inoculated into honeycomb wells in triplicate, and grown at 37 °C with maximum shaking using the platform of the Bioscreen C instrument. […] OD600 values were recorded automatically at specified times, and the means of the triplicate cultures were plotted.

The subject of a further data set is P. aeruginosa ATCC 27853. Nature of the data set: MIC (broth microdilution) and growth curves of antibiotics in combination with 9c or 9d. It counts as cell-based, Pseudomonas aeruginosa. Conditions: 24 h, broth microdilution. Here is the method:
as §1
Minimum inhibitory concentrations (MICs) for rifampicin and nalidixic acid were determined via the modified broth microdilution method in triplicate according to CLSI guidelines M7-A9 and M100-A30 [43]. The antibiotics were serially diluted twofold in 100 μL of MHB. The bacteria inoculum was 100 μL of a 1.0 × 10^6 CFU/mL dilution in MHB. MICs for antibiotics in the presence of 9c or 9d were determined with the same method.
MIC endpoints were read after 24 h of incubation with an iMark microplate absorbance reader (Bio-Rad, Hercules, CA, USA). Growth curves of P. aeruginosa ATCC 27853 in the presence of rifampicin/nalidixic acid and 9c/9d were obtained using a multifunction microplate reader, SuperMax 3100 (ShanghaiFlash, Shanghai, China). Cells were grown in triplicate at 37 °C with aeration.
In general terms: In broth dilution the organism is exposed to a series of concentrations in liquid medium.

Entries after “also recorded” stand apart in the source; their conditions may differ.

Consider `O=C(NO)c1nc(-c2c(F)cccc2F)no1` [Compound 4a], for which the melting point (as a rule, the temperature of the solid-liquid transition) is 117.4 °C (dec.). In data set [1], the CC50 (in general, the concentration giving 50% cytotoxicity) at 72 h is more than 500 µM. Besides, in the data set on E. coli MG1655, the Activity came out at 0.

For `O=C(NO)c1nc(-c2ccc(OC(F)(F)F)cc2)no1` [Compound 4b], the melting point was 108.6 °C (dec.). For the same compound, in data set [1], the CC50 at 72 h amounted to 380 ± 10.2 µM. Besides, in the data set on E. coli MG1655, the Activity amounted to 0.

As for `O=C(NO)c1nc(-c2cc(F)c(F)c(F)c2)no1` [Compound 4c], the melting point is 133.6 °C (dec.). Further, the CC50 at 72 h in data set [1] is more than 500 µM. Further, the Activity with E. coli MG1655 came to 0.

Take `Cc1cccc(-c2noc(C(=O)NO)n2)c1` [Compound 4d]: the melting point is 106 °C (dec.). In data set [1], this compound had a CC50 at 72 h of 457 ± 18.2 µM. Also, the Activity in the data set on E. coli MG1655 came out at 0.

With `COc1ccc(-c2noc(C(=O)NO)n2)cc1` [Compound 4e], the melting point is 144 °C (dec.). This compound also showed a CC50 at 72 h in data set [1] of more than 250 µM. In the data set on E. coli MG1655, the Activity is 0.

For the compound `O=C(NO)c1nc(-c2ccc(I)cc2)no1` [Compound 4f], the melting point was 181.3 °C (dec.). The 50% cytotoxic concentration (CC50) at 72 h in data set [1] was found to be 367 ± 53.9 µM. In the data set with E. coli MG1655, the Activity is 0.

On to `O=C(Cc1nc(-c2c(F)cccc2F)no1)NO` [Compound 9a], for which the melting point is 149.7 °C (dec.). For the same compound, in data set [1], the CC50 at 72 h is 188 ± 31.2 µM. Further, in the data set with E. coli MG1655, the Activity is reported as 0.

On to `O=C(Cc1nc(-c2ccc(OC(F)(F)F)cc2)no1)NO` [Compound 9b], for which the melting point was 177 °C (dec.). The compound also yielded a CC50 at 72 h in data set [1] of 108 ± 23.9 µM. The Activity in the data set with E. coli MG1655 is 0.

As for `O=C(NO)c1cccc(-c2nc(-c3c(F)cccc3F)no2)c1` [Compound 14a], the melting point was 204.2 °C (dec.). Also, the CC50 at 72 h in data set [1] amounted to 25.5 ± 3.11 µM. The Activity in the data set on E. coli MG1655 is given as 0.

As to `O=C(NO)c1cccc(-c2nc(-c3ccc(OC(F)(F)F)cc3)no2)c1` [Compound 14b], the melting point is 191 °C (dec.). Further, the CC50 at 72 h in data set [1] was determined as 6.39 ± 1.32 µM. In addition, in the data set on E. coli MG1655, the Activity is given as 0.

In the case of `O=C(NO)c1cccc(-c2nc(-c3cc(F)c(F)c(F)c3)no2)c1` [Compound 14c], the melting point was 188.5 °C (dec.). Also, the CC50 at 72 h in data set [1] worked out at 4.53 ± 1.22 µM. Besides, in the data set on E. coli MG1655, the Activity was 0.

As for `O=C(NO)c1ccc(-c2nc(-c3ccc(OC(F)(F)F)cc3)no2)cc1` [Compound 14d], the melting point was 236 °C (dec.). For the same compound, in data set [1], the CC50 at 72 h stood at 5.28 ± 1.05 µM. Further, the Activity with E. coli MG1655 stood at 0.

`O=C(NO)c1ccc(-c2nc(-c3ccccc3)no2)cc1` [Compound 14e]: the melting point was 265.4 °C (dec.). The compound also gave a CC50 at 72 h in data set [1] of 15 ± 0.53 µM. Moreover, in the data set with E. coli MG1655, the Activity turned out to be 0.

Turning to `O=C(CCc1nc(-c2c(F)cccc2F)no1)NO` [Compound 17a], the melting point was 99 °C (dec.). Further, the CC50 at 72 h in data set [1] was found to be 30.8 ± 3.71 µM. Also, the Activity with E. coli MG1655 amounted to 0.

As to `O=C(CCc1nc(-c2ccc(OC(F)(F)F)cc2)no1)NO` [Compound 17b], the melting point was 120 °C (dec.). For the same compound, half-maximal cytotoxicity in data set [1] (CC50 at 72 h) was put at 42.4 ± 4.58 µM. Besides, the Activity with E. coli MG1655 stood at 0.

As for `O=C(CCc1nc(-c2cc(F)c(F)c(F)c2)no1)NO` [Compound 17c], the melting point is 122 °C (dec.). Half-maximal cytotoxicity in data set [1] (CC50 at 72 h) was put at 59.2 ± 7.27 µM. The Activity in the data set on E. coli MG1655 is reported as 0.

Regarding `Cc1cccc(-c2noc(CCC(=O)NO)n2)c1` [Compound 17d], the melting point was 115.8 °C (dec.). This compound yielded a CC50 at 72 h in data set [1] of 21.3 ± 2.53 µM.

In the case of `O=C(Cc1noc(-c2ccc(Cl)cc2)n1)NO` [Compound 23a], the melting point was 174 °C (dec.). This compound also gave a CC50 at 72 h in data set [1] of 112 ± 18.6 µM. In the data set with E. coli MG1655, the Activity is recorded as 1, the “potentiation of kanamycin (sensitivity of cells)” value (shortened to “potentiation of kanamycin”) was “significantly increased the sensitivity”, the “potentiating activity with nalidixic acid (growth inhibition)” value is given as “inhibited bacterial growth less effectively; also recorded: less effective” and the “potentiation of rifampicin (sensitivity of cells)” value (“potentiation of rifampicin” for short) is “significantly increased the sensitivity”.

As to `O=C(Cc1noc(-c2ccc(I)cc2)n1)NO` [Compound 23b], the melting point was 211.6 °C (dec.). Besides, the CC50 at 72 h in data set [1] turned out to be 169 ± 22.5 µM. Also, in the data set with E. coli MG1655, the Activity stood at 0.

`O=C(Cc1noc(-c2cccc(Cl)c2)n1)NO` [Compound 23c]: the melting point is 146 °C (dec.). The same compound gave a CC50 at 72 h in data set [1] of 143 ± 3.84 µM. In the data set on E. coli MG1655, the Activity is on record as 1, the “potentiation of kanamycin” value is given as “significantly increased the sensitivity”, the “potentiating activity with nalidixic acid (growth inhibition)” value is reported as “inhibited bacterial growth less effectively; also recorded: less effective” and the “potentiation of rifampicin” value is reported as “significantly increased the sensitivity”.

With `O=C(Cc1noc(-c2cccc(I)c2)n1)NO` [Compound 23d], the melting point was 156.3 °C (dec.). In data set [1], this compound gave a CC50 at 72 h of 171 ± 22.9 µM. Besides, the Activity in the data set with E. coli MG1655 is reported as 0.

Take `O=C(NO)c1cccc(-c2noc(-c3ccccc3F)n2)c1` [Compound 26]: the melting point was 199.3 °C (dec.). The compound also returned a CC50 at 72 h in data set [1] of 21.7 ± 3.43 µM. For the same compound, the Activity in the data set on E. coli MG1655 turned out to be 0.

For `O=C(NO)c1nnc(-c2ccc(I)cc2)o1` [Compound 30a, N-Hydroxy-5-(4-iodophenyl)-1,3,4-oxadiazole-2-carboxamide], the melting point is 184.4 °C (dec.). Besides, in data set [1], the midpoint of cytotoxicity, the CC50 at 72 h, lay at 62.2 ± 9.88 µM. In addition, the Activity in the data set on E. coli MG1655 is recorded as 0.

With `O=C(NO)c1nnc(-c2cccc(I)c2)o1` [Compound 30b, N-Hydroxy-5-(3-iodophenyl)-1,3,4-oxadiazole-2-carboxamide], the melting point was 274.9 °C (dec.). For the same compound, the CC50 at 72 h in data set [1] is more than 200 µM. In the data set with E. coli MG1655, the Activity came out at 1, the “potentiation of kanamycin” value was “not to kanamycin”, the “potentiating activity with nalidixic acid (growth inhibition)” value was “inhibited bacterial growth less effectively; also recorded: weak potentiating activity” and the “potentiation of rifampicin” value was “significantly increased the sensitivity”.

Take `Cc1cc(F)ccc1-c1nnc(C(=O)NO)o1` [Compound 30c, 5-(4-Fluoro-2-methylphenyl)-N-hydroxy-1,3,4-oxadiazole-2-carboxamide]: the melting point was 259.6 °C (dec.). Further, in data set [1], the CC50 at 72 h is more than 200 µM. The Activity in the data set on E. coli MG1655 turned out to be 0.

As for `COc1ccc(-c2nnc(C(=O)NO)o2)c(OC)c1` [Compound 30d, 5-(2,4-Dimethoxyphenyl)-N-hydroxy-1,3,4-oxadiazole-2-carboxamide], the melting point is 197.3 °C (dec.). Also, the CC50 at 72 h in data set [1] was more than 600 µM. The Activity with E. coli MG1655 is recorded as 0.

For `COc1cccc(-c2nnc(C(=O)NO)o2)c1OC` [Compound 30e, 5-(2,3-Dimethoxyphenyl)-N-hydroxy-1,3,4-oxadiazole-2-carboxamide], the melting point was 166.7 °C (dec.). This compound had a CC50 at 72 h in data set [1] of 770 ± 58.4 µM. Besides, the Activity with E. coli MG1655 is 0.

On to `COc1ccc(-c2nnc(C(=O)NO)o2)cc1OC` [Compound 30f, 5-(3,4-Dimethoxyphenyl)-N-hydroxy-1,3,4-oxadiazole-2-carboxamide], for which the melting point was 130.7 °C (dec.). The CC50 at 72 h in data set [1] was 478 ± 50.5 µM. In addition, the Activity with E. coli MG1655 was 0.

In the case of `CCn1cc(C(=O)O)c(=O)c2ccc(C)nc21` [nalidixic acid, reference compound], in the data set on P. aeruginosa ATCC 27853, the “MIC of antibiotic alone” value was determined as 17.22 µM.

As for `CO[C@H]1/C=C/O[C@@]2(C)Oc3c(C)c(O)c4c(O)c(c(/C=N/N5CCN(C)CC5)c(O)c4c3C2=O)NC(=O)/C(C)=C\C=C\[C@H](C)[C@H](O)[C@@H](C)[C@@H](O)[C@@H](C)[C@H](OC(C)=O)[C@@H]1C` [rifampicin, reference compound], in the data set with P. aeruginosa ATCC 27853, the “MIC of antibiotic alone” value was 4.86 µM.
